The values below come from DBAASP.

Test systems include Escherichia coli K88; Bacillus cereus AS1.126; Escherichia coli AS1.349; Escherichia coli INV-a.
Common to all, as to experiment: ≥ marks a high value that may be exact or a test limit, other limits are often not marked, values filed in µg/mL are converted to µM
Assay [1] deals with Mycobacterium tuberculosis H37Rv.
Assay [2] concerns Salmonella enterica subsp. enterica serovar Pullorum C79-13.
Assay [3] has as its system Lacticaseibacillus rhamnosus 1.9021.
The subject of assay [4] is Salmonella enterica subsp. enterica serovar Choleraesuis CVCC 503.
Assay [5] relates to Staphylococcus aureus ATCC 29213.
Assay [6] concerns Pseudomonas aeruginosa PAO1.
For assay [7], the system named is Staphylococcus aureus ATCC 43300.
In assay [8] the test system is Escherichia coli O157:H7 CICC 21530.
Assay [9] concerns Salmonella enterica subsp. enterica serovar Typhimurium ATCC 14028.
Assay [10] concerns Lacticaseibacillus rhamnosus 1.0936.
Assay [11] relates to Lacticaseibacillus rhamnosus 8014.
Assay [12] has as its system Streptococcus agalactiae BNCC 185941.
In assay [13] the test system is Staphylococcus epidermidis ATCC 12228.
Assay [14] relates to Pseudomonas aeruginosa ATCC 27853.
For assay [15], the system named is Lacticaseibacillus rhamnosus 1.0911.
Assay [16] deals with Staphylococcus aureus CCT 2580.
Assay [17] deals with Cryptococcus gattii ATCC 56990.
Assay [18] relates to Bacillus thuringiensis ATCC 10792.
For assay [19], the system named is Enterococcus hirae ATCC 10541.
Assay [20] concerns Escherichia coli ATCC 11775.
Assay [21] relates to Enterococcus faecium CCT 5079.
The subject of assay [22] is Candida albicans ATCC 90028.
The test system of assay [23] is Bacillus cereus ATCC 11778.
The test system of assay [24] is Paracoccidioides lutzii ATCC MYA-826.
The test system of assay [25] is Escherichia coli CCT 1457.
Assay [26] relates to Escherichia coli ATCC 25922.
For assay [27], the system named is Streptococcus pneumoniae ATCC 11733.
The test system of assay [28] is Pseudomonas aeruginosa ATCC 13388.
The subject of assay [29] is Micrococcus luteus ATCC 4698.
Assay [30] deals with Streptococcus mutans AU159.
For assay [31], the system named is Staphylococcus aureus CCT 6538.
For assay [32], the system named is Pseudomonas aeruginosa ATCC 15422.
In assay [33] the test system is Paracoccidioides brasiliensis.
The test system of assay [34] is Salmonella enterica subsp. enterica serovar Choleraesuis ATCC 10708.
For assay [35], the system named is Staphylococcus aureus ATCC 25923.
For assay [36], the system named is Cryptococcus neoformans ATCC 90112.
For assay [37], the system named is Pseudomonas aeruginosa CGMCC 1.860.
Assay [38] relates to Staphylococcus aureus AS1.72.
Assay [39] deals with Klebsiella aerogenes CGMCC 1.876.
Assay [40] has as its system Enterococcus faecium CGMCC 1.2334.
The test system of assay [41] is Enterococcus faecalis CGMCC 1.595.
Assay [42] relates to Lactococcus lactis AS1.1690.
The subject of assay [43] is Klebsiella pneumoniae subsp. pneumoniae CGMCC 1.176.
The subject of assay [44] is Enterobacter cloacae CGMCC 1.58.
Assay [45] concerns Lactococcus lactis MG1363.

Each structure is given as a SMILES string. In brackets after ≈: the same amount, converted by molar mass.

Turning to `CC(C)C[C@H](NC(=O)[C@H](C)N)C(=O)N[C@@H](CCCCN)C(=O)N[C@@H](CCCCN)C(=O)N[C@@H](CC(C)C)C(=O)N[C@H](C(=O)N[C@@H](CCCN=C(N)N)C(=O)N[C@@H](Cc1c[nH]c2ccccc12)C(=O)N[C@@H](Cc1c[nH]c2ccccc12)C(=O)N[C@@H](CCCCN)C(=O)N[C@@H](CCCN=C(N)N)C(=O)N[C@@H](Cc1c[nH]c2ccccc12)C(=O)N[C@@H](Cc1c[nH]c2ccccc12)C(=O)N[C@@H](CO)C(=O)N[C@@H](CCCCN)C(=O)O)C(C)C` [ALKKLVRWWKRWWSK], the MIC (as a rule, the least concentration at which growth counts as inhibited) in assay [1] came to 18.1 µM (≈ 37.5 µg/mL).
Regarding `CC(C)C[C@H](NC(=O)[C@H](CCCCN)NC(=O)[C@H](CCCCN)NC(=O)CN)C(=O)N[C@@H](CC(C)C)C(=O)N[C@@H](Cc1c[nH]c2ccccc12)C(=O)N[C@@H](CC(C)C)C(=O)N[C@@H](CC(C)C)C(=O)N[C@@H](CCCCN)C(=O)N[C@@H](CCCCN)C(=O)NCC(N)=O` [GKKLLWLLKKG], the MIC was 16 µM (≈ 20.5 µg/mL) in assay [2]; not below 128 µM in assay [3]; not below 64 µM in [4]; more than 128 µM in assay [5]; 64 µM (≈ 82.1 µg/mL) in assay [6]; 16 µM (≈ 20.5 µg/mL) against Escherichia coli K88. For the same compound, the MIC in assay [7] is more than 128 µM; in assay [8], not below 64 µM; in [9] it was more than 128 µM; in [10], not below 128 µM; in assay [11], not below 128 µM; in [12], not below 128 µM. For the same compound, the MIC in assay [13] is more than 128 µM; in assay [14], more than 128 µM; in [15], not below 128 µM.
`CC[C@H](C)[C@H](N)C(=O)N[C@@H](CC(N)=O)C(=O)N[C@@H](Cc1c[nH]c2ccccc12)C(=O)N[C@@H](CC(C)C)C(=O)N[C@@H](CCCCN)C(=O)N[C@H](C(=O)N[C@@H](C)C(=O)N[C@@H](CCCCN)C(=O)N[C@@H](CCCCN)C(=O)N[C@H](C(=O)N[C@@H](CCCCN)C(=O)NCC(=O)N[C@@H](CCSC)C(=O)N[C@@H](CC(C)C)C(N)=O)C(C)C)[C@@H](C)CC` [INWLKIAKKVKGML]: the MIC in assay [16] worked out at 2.44 µM (≈ 4 µg/mL); in assay [17], 9.5 µM (≈ 15.6 µg/mL); in [18], 18.9 µM (≈ 31 µg/mL); in [19] it was 9.74 µM (≈ 16 µg/mL); in [20], 9.74 µM (≈ 16 µg/mL); in assay [21] it was 0.609 µM (≈ 0.999 µg/mL). The MIC in assay [22] was 9.51 µM (≈ 15.6 µg/mL); in assay [23] it was 18.9 µM (≈ 31 µg/mL); in assay [24], 9.5 µM (≈ 15.6 µg/mL); in [25], 2.44 µM (≈ 4 µg/mL); in [26] it was 18.9 µM (≈ 31 µg/mL); in assay [27], 0.609 µM (≈ 0.999 µg/mL). Besides, the MIC in assay [28] is 4.87 µM (≈ 8 µg/mL); in assay [29], 1.22 µM (≈ 2 µg/mL); in [30], 4.87 µM (≈ 8 µg/mL); in [31], 4.87 µM (≈ 8 µg/mL); in [32], 9.74 µM (≈ 16 µg/mL); in assay [9], 4.87 µM (≈ 8 µg/mL). For the same compound, the MIC stood at 4.75 µM (≈ 7.8 µg/mL) in assay [33]; 18.9 µM (≈ 31 µg/mL) in assay [34]; 2.44 µM (≈ 4 µg/mL) in assay [35]; 19 µM (≈ 31.2 µg/mL) in assay [36]; 1.22 µM (≈ 2 µg/mL) in assay [13].
As for `NC(N)=NCCC[C@H](NC(=O)[C@H](Cc1cnc[nH]1)NC(=O)[C@H](Cc1c[nH]c2ccccc12)NC(=O)[C@H](Cc1ccccc1)NC(=O)[C@H](CCCN=C(N)N)NC(=O)[C@H](CCCN=C(N)N)NC(=O)[C@H](Cc1c[nH]c2ccccc12)NC(=O)[C@@H](N)Cc1cnc[nH]1)C(=O)O` [HWRRFWHR], the MIC in assay [37] was 12.5 µM (≈ 16 µg/mL); in [38] it was 12.5 µM (≈ 16 µg/mL); in [39], not below 100 µM; in [40] it was 12.5 µM (≈ 16 µg/mL); in assay [41], 12.5 µM (≈ 16 µg/mL); in assay [42], 25 µM (≈ 32 µg/mL). In addition, the minimal inhibitory concentration (MIC) in assay [43] was not below 100 µM; against Bacillus cereus AS1.126 it was 3.13 µM (≈ 4.01 µg/mL); with Escherichia coli AS1.349 it was 12.5 µM (≈ 16 µg/mL); in assay [44], not below 100 µM.
Consider `CC[C@H](C)[C@H](N)C(=O)N[C@@H](CC(N)=O)C(=O)N[C@@H](Cc1c[nH]c2ccccc12)C(=O)N[C@@H](CCCCN)C(=O)NCC(=O)N[C@H](C(=O)N[C@@H](C)C(=O)N[C@@H](C)C(=O)N[C@@H](CCSC)C(=O)N[C@@H](C)C(=O)N[C@@H](CCCCN)C(=O)N[C@@H](CCCCN)C(=O)N[C@@H](CC(C)C)C(=O)N[C@@H](C)C(N)=O)[C@@H](C)CC` [INWKGIAAMAKKLA], for which the MIC in assay [45] is 21 µM (≈ 31.8 µg/mL); in the assay with Escherichia coli INV-a it was not below 33 µM.
